Data on 16 compounds can be found in US20220151236A1, “NOVEL OXADIAZOLE COMPOUNDS FOR CONTROLLING OR PREVENTING PHYTOPATHOGENIC FUNGI” (PI INDUSTRIES LTD., priority 2019, published 2022).

One assay has as its system Phakopsora pachyrhizi. In words: Phakopsora pachyrhizi Test on Soybean (preventive activity, greenhouse). In kind it is in vivo. Conditions: preventive spray on young Soybean plants, inoculated one day after treatment, rated 3, 7, 10 and 15 days after application, read-out: Efficacy (% control), disease severity compared to the untreated check. In short, it runs like this:
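Preventive greenhouse test: young soybean plants sprayed with compound in 2% DMSO/acetone plus emulsified water at stated rates, inoculated one day later with 2×10^5 P. pachyrhizi conidia, held at 22-24° C and 80-90% RH. Disease severity (0-100%) rated 3, 7, 10 and 15 days after application; % control relative to untreated plants.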

A further assay relates to Colletotrichum capsici. The experiment in a line: Colletotrichum capsici (Anthracnose): radial mycelial growth on potato dextrose agar. It counts as cell-based. Conditions: Colletotrichum truncatum, 168 h, 25° C., 60% relative humidity, seven days, read-out: control (radial growth compared to the untreated check).
In another assay the test system is Pyricularia Oryzae. In words: microbe, parasite or virus in culture. In kind it is cell-based. The following applies: 168 h, read-out: control (radial growth compared to the untreated check).
The subject of a further assay is Botrytis cinerea. The experiment in a line: Botrytis cinerea (Gray Mold): radial mycelial growth on potato dextrose agar. In kind it is cell-based. The following applies: 300 ppm, 22° C., 90% relative humidity, seven days.
In a further assay the test system is Alternaria solani. In words: Alternaria solani (Early Blight of Tomato/Potato): radial mycelial growth on potato dextrose agar. In kind it is cell-based. The following applies: 168 h, potato dextrose agar, 25° C., 60% relative humidity, seven days, read-out: control (radial growth compared to the untreated check). As to the method:
Compounds were dissolved in 0.3% dimethyl sulfoxide and then added to potato dextrose agar medium just prior to dispensing it into petri dishes. 5 mL medium with the compound in the desired concentration was dispensed into 60 mm sterile petri-plates. After solidification each plate was seeded with a 5 mm size mycelial disc taken from the periphery of an actively growing virulent culture plate. Plates were incubated in growth chambers at 25° C. temperature and 60% relative humidity for seven days and then the radial growth was measured and compared to that of the untreated control. Compounds 2 85 89 92 94 108 113 114 131 138 142 143

Where only a bound is given, the exact number is not on record here.

Regarding `COc1cccc(SCc2cn3ccc(-c4noc(C(F)(F)F)n4)cc3n2)c1` [Compound 46, 3-(2-(((3-methoxyphenyl)thio)methyl)imidazo[1,2-a]pyridin-7-yl)-5-(trifluoromethyl)-1,2,4-oxadiazole], the pest or weed control at 500 ppm in the assay on Phakopsora pachyrhizi is not below 70%. Also, the inhibition of growth at 300 ppm with Colletotrichum capsici is not below 70%.

Regarding `FC(F)(F)c1nc(-c2ccn3cc(CSc4ccccc4)nc3c2)no1` [Compound 50, 3-(2-((phenylthio)methyl)imidazo[1,2-a]pyridin-7-yl)-5-(trifluoromethyl)-1,2,4-oxadiazole], the inhibition of growth at 300 ppm in the assay on Colletotrichum capsici was not below 70%. As to `COCCNC(=O)c1cn2cc(-c3noc(C(F)(F)F)n3)ccc2n1` [Compound 65, N-(2-methoxyethyl)-6-(5-(trifluoromethyl)-1,2,4-oxadiazol-3-yl)imidazo[1,2-a]pyridine-2-carboxamide], the pest or weed control at 500 ppm in the assay with Phakopsora pachyrhizi is not below 70%. Further, the inhibition of growth at 300 ppm in the assay on Colletotrichum capsici is not below 70%. On to `O=C(c1cn2cc(-c3noc(C(F)(F)F)n3)ccc2n1)N1CCC1` [Compound 69, azetidin-1-yl(6-(5-(trifluoromethyl)-1,2,4-oxadiazol-3-yl)imidazo[1,2-a]pyridin-2-yl)methanone], for which the pest or weed control at 500 ppm with Phakopsora pachyrhizi was not below 70%. Further, the inhibition of growth at 300 ppm in the assay on Colletotrichum capsici is not below 70%. As for `CCOCc1cn2cc(-c3noc(C(F)(F)F)n3)ccc2n1` [Compound 80, 3-(2-(ethoxymethyl)imidazo[1,2-a]pyridin-6-yl)-5-(trifluoromethyl)-1,2,4-oxadiazole], the inhibition of growth at 300 ppm with Pyricularia Oryzae is not below 70%. Further, the “control (radial growth compared to the untreated check)” value in the assay on Botrytis cinerea is recorded as not below 70%. Take `O=C(NCc1cn2cc(-c3noc(C(F)(F)F)n3)ccc2n1)c1cocn1` [Compound 92, N-((6-(5-(trifluoromethyl)-1,2,4-oxadiazol-3-yl)imidazo[1,2-a]pyridin-2-yl)methyl)oxazole-4-carboxamide]: the inhibition of growth at 300 ppm in the assay on Pyricularia Oryzae and in the assay on Alternaria solani was not below 70% each time. Turning to `FC(F)(F)c1nc(-c2ccc3nc(CSc4cccc(Cl)c4)cn3c2)no1` [Compound 103, 3-(2-(((3-chlorophenyl)thio)methyl)imidazo[1,2-a]pyridin-6-yl)-5-(trifluoromethyl)-1,2,4-oxadiazole], in the assay on Phakopsora pachyrhizi, the pest or weed control at 500 ppm is not below 70%. Moreover, the inhibition of growth at 300 ppm in the assay on Pyricularia Oryzae was not below 70%. Consider `FC(F)(F)c1nc(-c2ccc3nc(CSc4cc(Cl)cc(Cl)c4)cn3c2)no1` [Compound 111, 3-(2-(((3,5-dichlorophenyl)thio)methyl)imidazo[1,2-a]pyridin-6-yl)-5-(trifluoromethyl)-1,2,4-oxadiazole], for which the pest or weed control at 500 ppm in the assay with Phakopsora pachyrhizi is not below 70%. The inhibition of growth at 300 ppm in the assay on Colletotrichum capsici was not below 70%.

On to `CC(C)CSCc1cn2cc(-c3noc(C(F)(F)F)n3)ccc2n1` [Compound 112, 3-(2-((isobutylthio)methyl)imidazo[1,2-a]pyridin-6-yl)-5-(trifluoromethyl)-1,2,4-oxadiazole], for which, in the assay on Phakopsora pachyrhizi, the pest or weed control at 500 ppm was not below 70%. For the same compound, the inhibition of growth at 300 ppm in the assay with Colletotrichum capsici is not below 70%. For `FC(F)(F)c1nc(-c2ccc3nc(CSC4CCCC4)cn3c2)no1` [Compound 113, 3-(2-((cyclopentylthio)methyl)imidazo[1,2-a]pyridin-6-yl)-5-(trifluoromethyl)-1,2,4-oxadiazole], the inhibition of growth at 300 ppm in the assay on Pyricularia Oryzae and in the assay on Alternaria solani was not below 70% in each case. `FC(F)(F)c1nc(-c2ccc3nc(CSC4CCCCC4)cn3c2)no1` [Compound 114, 3-(2-((cyclohexylthio)methyl)imidazo[1,2-a]pyridin-6-yl)-5-(trifluoromethyl)-1,2,4-oxadiazole]: the inhibition of growth at 300 ppm in the assay on Pyricularia Oryzae and with Alternaria solani was not below 70% in each case.

With `O=S(=O)(Cc1cn2cc(-c3noc(C(F)(F)F)n3)ccc2n1)c1ccccc1` [Compound 116, 3-(2-((phenylsulfonyl)methyl)imidazo[1,2-a]pyridin-6-yl)-5-(trifluoromethyl)-1,2,4-oxadiazole], the pest or weed control at 500 ppm in the assay with Phakopsora pachyrhizi was not below 70%. The inhibition of growth at 300 ppm in the assay with Colletotrichum capsici was not below 70%. With `O=S(=O)(Cc1cn2cc(-c3noc(C(F)(F)F)n3)ccc2n1)c1ccc(Cl)c(Cl)c1` [Compound 117, 3-(2-(((3,4-dichlorophenyl)sulfonyl)methyl)imidazo[1,2-a]pyridin-6-yl)-5-(trifluoromethyl)-1,2,4-oxadiazole], the inhibition of growth at 300 ppm in the assay on Colletotrichum capsici was not below 70%. As to `COc1ccc(S(C)(=O)=NC(=O)Cc2cn3cc(-c4noc(C(F)(F)F)n4)ccc3n2)cc1` (stereo not drawn) [Compound 138, N-((4-methoxyphenyl)(methyl)(oxo)-λ^6-sulfaneylidene)-2-(6-(5-(trifluoromethyl)-1,2,4-oxadiazol-3-yl)imidazo[1,2-a]pyridin-2-yl)acetamide], the inhibition of growth at 300 ppm with Pyricularia Oryzae and in the assay with Alternaria solani was not below 70% throughout. For the compound `CS(=O)(=NC(=O)Cc1cn2cc(-c3noc(C(F)(F)F)n3)ccc2n1)c1ccc(Br)cc1` (stereo not drawn) [Compound 142, N-((4-bromophenyl)(methyl)(oxo)-λ^6-sulfaneylidene)-2-(6-(5-(trifluoromethyl)-1,2,4-oxadiazol-3-yl)imidazo[1,2-a]pyridin-2-yl)acetamide], the inhibition of growth at 300 ppm in the assay with Pyricularia Oryzae and in the assay with Alternaria solani was not below 70% in each case. On to `COc1ccnc(S(C)(=O)=NC(=O)Cc2cn3cc(-c4noc(C(F)(F)F)n4)ccc3n2)c1` (stereo not drawn) [Compound 146, N-((4-methoxypyridin-2-yl)(methyl)(oxo)-λ^6-sulfaneylidene)-2-(6-(5-(trifluoromethyl)-1,2,4-oxadiazol-3-yl)imidazo[1,2-a]pyridin-2-yl)acetamide], for which the inhibition of growth at 300 ppm in the assay on Pyricularia Oryzae and with Alternaria solani was not below 70% in each case.
